Laboratory results published in PubChem BioAssay AID328 (DTP/NCI, 2004).
Toxic doses and inconclusive results are not listed. The calls were made as follows: active = survival T/C of 150% or more; inactive = T/C below 125% in these data.

System: BDF1 mice, P388 leukemia ip, median survival T/C
Experiment: NCI In Vivo Anticancer Drug Screen. Data for tumor model P388 Leukemia (intraperitoneal) in B6D2F1 (BDF1) mice
Conditions: endpoint: median survival time, higher = longer survival
How it was run: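 Each value expresses how treatment altered survival: treated-mouse outcome over vehicle-mouse outcome, both groups bearing the transplanted tumour.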

[1] = dose: 100.0 mg/kg/injection, schedule: Q04DX003 (ip), vehicle: Klucel (hydroxypropylcellulose) (HPC)
[2] = dose: 100.0 mg/kg/injection, schedule: Q01DX009 (ip), vehicle: saline with Tween-80
[3] = dose: 50.0 mg/kg/injection, schedule: Q01DX009 (ip), vehicle: saline with Tween-80
[4] = dose: 200.0 mg/kg/injection, schedule: Q01DX009 (ip), vehicle: saline with Tween-80
[5] = dose: 100.0 mg/kg/injection, schedule: Q04DX003 (ip), vehicle: saline with Tween-80
[6] = dose: 200.0 mg/kg/injection, schedule: Q04DX003 (ip), vehicle: saline with Tween-80
[7] = dose: 400.0 mg/kg/injection, schedule: Q04DX003 (ip), vehicle: saline with Tween-80

Measured: T/C

CN(C)C(=O)c1cccc(COc2ccc(N3C(N)=NC(N)=NC3(C)C)cc2Cl)c1
inactive: dose: 4.0 mg/kg/injection, schedule: Q03HX024 (ip), vehicle: saline 100 % of control | dose: 8.0 mg/kg/injection, schedule: Q03HX016 (ip), vehicle: saline 100 % of control | dose: 16.0 mg/kg/injection, schedule: Q01DX009 (ip), vehicle: saline 90 % of control | dose: 16.0 mg/kg/injection, schedule: Q01DX009 (sc), vehicle: saline 100 % of control | dose: 16.0 mg/kg/injection, schedule: Q03HX016 (ip), vehicle: saline 100 % of control | dose: 16.0 mg/kg/injection, schedule: Q03HX024 (ip), vehicle: saline 118 % of control | dose: 32.0 mg/kg/injection, schedule: Q01DX009 (ip), vehicle: saline 118 % of control | dose: 32.0 mg/kg/injection, schedule: Q01DX009 (sc), vehicle: saline 90 % of control | dose: 32.0 mg/kg/injection, schedule: Q03HX016 (ip), vehicle: saline 118 % of control | dose: 32.0 mg/kg/injection, schedule: Q04DX003 (ip), vehicle: saline 100 % of control | dose: 64.0 mg/kg/injection, schedule: Q01DX001 (ip), vehicle: saline 100 % of control | dose: 64.0 mg/kg/injection, schedule: Q01DX001 (sc), vehicle: saline 90 % of control | dose: 64.0 mg/kg/injection, schedule: Q01DX009 (oral), vehicle: saline 90 % of control | dose: 64.0 mg/kg/injection, schedule: Q04DX003 (ip), vehicle: saline 100 % of control | dose: 64.0 mg/kg/injection, schedule: Q08DX002 (ip), vehicle: saline 100 % of control | dose: 128.0 mg/kg/injection, schedule: Q01DX001 (oral), vehicle: saline 90 % of control | dose: 128.0 mg/kg/injection, schedule: Q01DX001 (sc), vehicle: saline 100 % of control | dose: 128.0 mg/kg/injection, schedule: Q01DX009 (oral), vehicle: saline 95 % of control | dose: 256.0 mg/kg/injection, schedule: Q01DX001 (oral), vehicle: saline 95 % of control | dose: 256.0 mg/kg/injection, schedule: Q01DX001 (sc), vehicle: saline 90 % of control | dose: 512.0 mg/kg/injection, schedule: Q01DX001 (oral), vehicle: saline 90 % of control | dose: 512.0 mg/kg/injection, schedule: Q01DX001 (sc), vehicle: saline 100 % of control | dose: 1024.0 mg/kg/injection, schedule: Q01DX001 (oral), vehicle: saline 95 % of control

C1CCNCC1.O=C([CH-]C(=O)C(F)(F)F)c1cccs1.O=C([CH-]C(=O)C(F)(F)F)c1cccs1.O=C([CH-]C(=O)C(F)(F)F)c1cccs1.O=C([CH-]C(=O)C(F)(F)F)c1cccs1.[Eu+3]
inactive: dose: 100.0 mg/kg/injection, schedule: Q01DX009 (ip), vehicle: saline 122 % of control

CC(=O)O[C@H]1CC[C@H]2[C@@H]3CC[C@H]4C[C@@H]5[C@H](C[C@]4(C)[C@H]3CC[C@]12C)C5(F)F
inactive: dose: 3.12 mg/kg/injection, schedule: Q04DX003 (ip), vehicle: Klucel (hydroxypropylcellulose) (HPC) 100 % of control | dose: 6.25 mg/kg/injection, schedule: Q01DX009 (ip), vehicle: Klucel (hydroxypropylcellulose) (HPC) 88 % of control | dose: 6.25 mg/kg/injection, schedule: Q04DX003 (ip), vehicle: Klucel (hydroxypropylcellulose) (HPC) 100 % of control | dose: 12.5 mg/kg/injection, schedule: Q01DX009 (ip), vehicle: Klucel (hydroxypropylcellulose) (HPC) 92 % of control | dose: 12.5 mg/kg/injection, schedule: Q04DX003 (ip), vehicle: Klucel (hydroxypropylcellulose) (HPC) 100 % of control | dose: 25.0 mg/kg/injection, schedule: Q01DX009 (ip), vehicle: Klucel (hydroxypropylcellulose) (HPC) 100 % of control | [1] 100 % of control

COc1ccc(/C=C2\C(=O)C(c3ccccc3)N(c3ccccc3)C2=O)cc1 (stereo unspecified)
inactive: dose: 400.0 mg/kg/injection, schedule: Q04DX002 (ip), vehicle: saline with Tween-80 88 % of control

O=C(CC(c1ccccc1)C(C(=O)O)c1ccccc1)c1ccccc1 (stereo unspecified)
inactive: dose: 50.0 mg/kg/injection, schedule: Q01DX009 (ip), vehicle: Klucel (hydroxypropylcellulose) (HPC) 101 % of control | dose: 100.0 mg/kg/injection, schedule: Q01DX009 (ip), vehicle: Klucel (hydroxypropylcellulose) (HPC) 92 % of control

Clc1ccc(-n2nnc3cc(Cl)ccc32)c(Cl)c1
inactive: [2] 99 % of control

OCC1OC(n2cnc3c(SCc4ccccc4)nc(NO)nc32)C(O)C1O (stereo unspecified)
inactive: dose: 200.0 mg/kg/injection, schedule: Q01DX009 (ip), vehicle: acetone 100 % of control

O=[N+]([O-])c1ccc(S(=O)c2ccc([N+](=O)[O-])c3no[n+]([O-])c23)cc1 (stereo unspecified)
inactive: dose: 10.0 mg/kg/injection, schedule: Q01DX009 (ip), vehicle: saline with Tween-80 104 % of control | dose: 20.0 mg/kg/injection, schedule: Q01DX009 (ip), vehicle: saline with Tween-80 100 % of control | dose: 40.0 mg/kg/injection, schedule: Q01DX009 (ip), vehicle: saline with Tween-80 102 % of control

O=C1CN(Cc2ccc3c(c2)OCO3)NO1
inactive: dose: 25.0 mg/kg/injection, schedule: Q01DX009 (ip), vehicle: saline with Tween-80 113 % of control | [3] 106 % of control | [2] 123 % of control | [4] 115 % of control

O=[N+]([O-])c1ccc(/C=C/c2nccs2)o1
inactive: [1] 100 % of control | dose: 200.0 mg/kg/injection, schedule: Q04DX003 (ip), vehicle: Klucel (hydroxypropylcellulose) (HPC) 103 % of control

COc1ccc(CNCCNCc2ccc(OC)c(OC)c2)cc1OC
inactive: [5] 115 % of control | [6] 105 % of control | [7] 110 % of control

Cc1nc2ccccc2nc1CC(=O)c1ccccc1
inactive: [3] 112 % of control | [2] 104 % of control | [4] 99 % of control

CCOC(=O)c1c(OCCCc2ccc(F)cc2)cc2ccc3ccccc3c2c1OCCCc1ccc(F)cc1
inactive: [5] 86 % of control | [6] 87 % of control | [7] 103 % of control

Clc1nc2ccccc2nc1CI
inactive: dose: 1.8 mg/kg/injection, schedule: Q01DX009 (ip), vehicle: saline 118 % of control | dose: 2.7 mg/kg/injection, schedule: Q01DX009 (ip), vehicle: saline 122 % of control | dose: 8.75 mg/kg/injection, schedule: Q04DX003 (ip), vehicle: saline 113 % of control | dose: 12.5 mg/kg/injection, schedule: Q01DX009 (ip), vehicle: saline with Tween-80 118 % of control | dose: 12.5 mg/kg/injection, schedule: Q01DX009 (ip), vehicle: saline 90 % of control | dose: 12.5 mg/kg/injection, schedule: Q04DX003 (ip), vehicle: saline with Tween-80 113 % of control | dose: 17.5 mg/kg/injection, schedule: Q04DX003 (ip), vehicle: saline 121 % of control | dose: 25.0 mg/kg/injection, schedule: Q04DX003 (ip), vehicle: saline with Tween-80 118 % of control | dose: 35.0 mg/kg/injection, schedule: Q04DX003 (ip), vehicle: saline 113 % of control | dose: 50.0 mg/kg/injection, schedule: Q04DX003 (ip), vehicle: saline 113 % of control

CCOC(=O)CCC(NC(=O)c1cc(Cl)c(N(C)S(=O)(=O)c2ccc(C)cc2)cc1Cl)C(=O)OCC (stereo unspecified)
inactive: dose: 25.0 mg/kg/injection, schedule: Q01DX001 (ip), vehicle: saline sonified 109 % of control | dose: 50.0 mg/kg/injection, schedule: Q01DX001 (ip), vehicle: saline sonified 104 % of control | dose: 100.0 mg/kg/injection, schedule: Q01DX001 (ip), vehicle: saline sonified 104 % of control

CC(C)C1=C(O)C2=C(C(=O)C1=O)C1(C)CCCC(C)(C)C1CC2O (stereo unspecified)
inactive: dose: 2.0 mg/kg/injection, schedule: Q01DX010 (ip), vehicle: carboxymethylcellulose (CMC) 100 % of control | dose: 5.0 mg/kg/injection, schedule: Q01DX010 (ip), vehicle: carboxymethylcellulose (CMC) 95 % of control | dose: 10.0 mg/kg/injection, schedule: Q01DX010 (ip), vehicle: carboxymethylcellulose (CMC) 90 % of control | dose: 20.0 mg/kg/injection, schedule: Q01DX010 (ip), vehicle: carboxymethylcellulose (CMC) 105 % of control
